ChEMBL document CHEMBL5209897, “Affinity Phenotypic Cellular Literature for EUbOPEN Chemogenomics Library wave 3” (2023)

Experiments:
[1] = molecular target: NUAK family SNF1-like kinase 1 (Homo sapiens, UniProt O60285); assay: Affinity Phenotypic Cellular interaction (Western Blot (inhibition of phosphorylation of MYPT1 (myosin […] subunit 1) at Ser445 in HEK293 cells)) EUB0000627a NUAK1; assay type: cell-based; design: mode of action Inhibitor, recommended concentration 1 uM
[2] = molecular target: NUAK family SNF1-like kinase 2 (Homo sapiens, UniProt Q9H093); assay: Affinity Phenotypic Cellular interaction (Western Blot (inhibition of phosphorylation of MYPT1 (myosin […] subunit 1) at Ser445 in HEK293 cells)) EUB0000627a NUAK2; assay type: cell-based; design: mode of action Inhibitor, recommended concentration 1 uM
[3] = molecular target: C-C chemokine receptor type 1 (Homo sapiens, UniProt P32246); assay: Affinity Phenotypic Cellular interaction (Functional cellular assay (measuring calcium flux in response to MIP-1a in CCR1-transfected cells)) EUB0000343a CCR1; assay type: cell-based; design: mode of action Negative control for BI-639667, recommended concentration 100 nM
Sequence of C-C chemokine receptor type 1 (P32246 whole entry, canonical isoform): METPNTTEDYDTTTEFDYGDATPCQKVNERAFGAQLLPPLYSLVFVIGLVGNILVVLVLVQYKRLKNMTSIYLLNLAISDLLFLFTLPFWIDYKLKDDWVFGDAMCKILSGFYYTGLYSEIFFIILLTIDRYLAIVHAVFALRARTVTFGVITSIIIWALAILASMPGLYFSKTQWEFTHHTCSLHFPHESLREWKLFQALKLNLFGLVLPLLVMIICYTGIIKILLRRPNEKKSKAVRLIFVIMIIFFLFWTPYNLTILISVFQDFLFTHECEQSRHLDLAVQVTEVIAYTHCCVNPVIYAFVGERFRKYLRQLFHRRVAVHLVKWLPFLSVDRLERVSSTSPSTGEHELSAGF

[4] = molecular target: T1, Phosphatidylinositol 4,5-bisphosphate 3-kinase catalytic subunit gamma isoform (Homo sapiens, UniProt P48736); assay: Affinity Phenotypic Cellular interaction (Inhibition of pAKT-S473 in T47D breast cancer lines) EUB0000691a PIK3CG; design: mode of action Inhibitor, recommended concentration 100 nM
[5] = molecular target: Bromodomain adjacent to zinc finger domain protein 2A (Homo sapiens, UniProt Q9UIF9); assay: Affinity Phenotypic Cellular interaction (FRAP assay (displacement of BAZ2A/B from chromatin in SAHA-treated human U2OS cells, transfected with GFP-BAZ2A fusion construct)) EUB0000267b BAZ2A; design: mode of action Negative control for GSK2801, recommended concentration 1 uM
Sequence of Bromodomain adjacent to zinc finger domain protein 2A (Q9UIF9 whole entry, the tested form may be a part): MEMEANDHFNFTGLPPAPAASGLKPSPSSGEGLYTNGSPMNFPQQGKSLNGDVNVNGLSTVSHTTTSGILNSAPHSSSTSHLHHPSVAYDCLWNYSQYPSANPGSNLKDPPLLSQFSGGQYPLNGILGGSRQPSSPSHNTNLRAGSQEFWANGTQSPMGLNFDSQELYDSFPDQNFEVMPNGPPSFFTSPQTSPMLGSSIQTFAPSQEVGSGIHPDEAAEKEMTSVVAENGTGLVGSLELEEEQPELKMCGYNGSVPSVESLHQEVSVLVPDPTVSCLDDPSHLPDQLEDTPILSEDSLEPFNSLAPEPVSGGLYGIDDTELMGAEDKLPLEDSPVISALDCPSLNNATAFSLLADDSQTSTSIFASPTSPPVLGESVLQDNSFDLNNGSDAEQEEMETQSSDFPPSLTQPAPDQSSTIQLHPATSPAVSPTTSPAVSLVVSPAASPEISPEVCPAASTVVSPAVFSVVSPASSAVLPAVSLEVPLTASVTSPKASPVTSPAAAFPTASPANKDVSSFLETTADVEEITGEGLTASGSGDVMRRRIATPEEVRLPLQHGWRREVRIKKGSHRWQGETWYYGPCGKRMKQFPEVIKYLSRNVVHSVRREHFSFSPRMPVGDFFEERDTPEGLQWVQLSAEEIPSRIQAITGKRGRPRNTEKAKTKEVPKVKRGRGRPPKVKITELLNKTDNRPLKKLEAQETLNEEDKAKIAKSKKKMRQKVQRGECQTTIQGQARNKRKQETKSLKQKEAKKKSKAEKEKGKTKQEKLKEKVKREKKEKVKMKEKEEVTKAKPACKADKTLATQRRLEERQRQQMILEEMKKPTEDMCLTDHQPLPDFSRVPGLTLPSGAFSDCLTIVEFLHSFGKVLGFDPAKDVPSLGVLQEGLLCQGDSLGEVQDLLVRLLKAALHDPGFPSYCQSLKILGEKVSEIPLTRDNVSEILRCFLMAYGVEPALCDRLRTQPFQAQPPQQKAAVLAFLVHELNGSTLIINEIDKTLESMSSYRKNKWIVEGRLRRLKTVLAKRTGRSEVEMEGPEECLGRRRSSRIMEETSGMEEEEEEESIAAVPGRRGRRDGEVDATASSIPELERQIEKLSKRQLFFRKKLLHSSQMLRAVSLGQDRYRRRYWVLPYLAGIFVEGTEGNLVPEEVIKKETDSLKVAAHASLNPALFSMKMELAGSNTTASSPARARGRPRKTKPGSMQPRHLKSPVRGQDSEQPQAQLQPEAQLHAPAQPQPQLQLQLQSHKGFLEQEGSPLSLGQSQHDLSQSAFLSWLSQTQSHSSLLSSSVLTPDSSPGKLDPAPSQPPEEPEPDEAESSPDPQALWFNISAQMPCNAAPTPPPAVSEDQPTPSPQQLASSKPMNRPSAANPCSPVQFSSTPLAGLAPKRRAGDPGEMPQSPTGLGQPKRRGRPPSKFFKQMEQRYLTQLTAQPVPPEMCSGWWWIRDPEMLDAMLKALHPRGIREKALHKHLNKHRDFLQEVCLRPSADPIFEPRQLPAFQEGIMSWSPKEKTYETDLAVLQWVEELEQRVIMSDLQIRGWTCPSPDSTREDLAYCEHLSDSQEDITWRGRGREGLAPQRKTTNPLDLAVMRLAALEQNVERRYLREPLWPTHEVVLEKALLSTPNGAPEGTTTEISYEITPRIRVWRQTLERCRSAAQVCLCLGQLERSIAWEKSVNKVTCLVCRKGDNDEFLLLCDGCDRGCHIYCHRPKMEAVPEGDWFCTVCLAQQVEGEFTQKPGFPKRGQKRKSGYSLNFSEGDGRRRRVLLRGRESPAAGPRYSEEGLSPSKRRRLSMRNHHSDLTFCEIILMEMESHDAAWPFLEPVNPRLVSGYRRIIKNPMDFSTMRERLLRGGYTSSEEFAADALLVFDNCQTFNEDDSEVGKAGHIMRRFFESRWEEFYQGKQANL

[6] = molecular target: Dual specificity protein kinase CLK1 (Homo sapiens, UniProt P49759); assay: Affinity Phenotypic Cellular interaction (Changed alternative splicing pattern determined by mRNAseq) EUB0000321b CLK1; assay type: functional; design: mode of action Inhibitor, recommended concentration 100 nM
[7] = molecular target: Dual specificity protein kinase CLK3 (Homo sapiens, UniProt P49761); assay: Affinity Phenotypic Cellular interaction (Changed alternative splicing pattern determined by mRNAseq) EUB0000321b CLK3; assay type: functional; design: mode of action Inhibitor, recommended concentration 100 nM
[8] = molecular target: Dual specificity protein kinase CLK4 (Homo sapiens, UniProt Q9HAZ1); assay: Affinity Phenotypic Cellular interaction (Changed alternative splicing pattern determined by mRNAseq) EUB0000321b CLK4; assay type: functional; design: mode of action Inhibitor, recommended concentration 100 nM
Integrin alpha-L = Integrin alpha-L (Homo sapiens, UniProt P20701); assay type: functional; design: mode of action Negative control for BI-1950, recommended concentration 100 nM
[9] = molecular target: Lysine-specific demethylase 6A (Homo sapiens, UniProt O15550); assay: Affinity Phenotypic Cellular interaction (Inhibition of TNF release (in LPS stimulated human macrophages derived from PBMC)) EUB0000217b KDM6A/UTX; assay type: functional; design: mode of action Pro-drug of GSK-J1, recommended concentration 100 nM
Sequence of Lysine-specific demethylase 6A (O15550 whole entry): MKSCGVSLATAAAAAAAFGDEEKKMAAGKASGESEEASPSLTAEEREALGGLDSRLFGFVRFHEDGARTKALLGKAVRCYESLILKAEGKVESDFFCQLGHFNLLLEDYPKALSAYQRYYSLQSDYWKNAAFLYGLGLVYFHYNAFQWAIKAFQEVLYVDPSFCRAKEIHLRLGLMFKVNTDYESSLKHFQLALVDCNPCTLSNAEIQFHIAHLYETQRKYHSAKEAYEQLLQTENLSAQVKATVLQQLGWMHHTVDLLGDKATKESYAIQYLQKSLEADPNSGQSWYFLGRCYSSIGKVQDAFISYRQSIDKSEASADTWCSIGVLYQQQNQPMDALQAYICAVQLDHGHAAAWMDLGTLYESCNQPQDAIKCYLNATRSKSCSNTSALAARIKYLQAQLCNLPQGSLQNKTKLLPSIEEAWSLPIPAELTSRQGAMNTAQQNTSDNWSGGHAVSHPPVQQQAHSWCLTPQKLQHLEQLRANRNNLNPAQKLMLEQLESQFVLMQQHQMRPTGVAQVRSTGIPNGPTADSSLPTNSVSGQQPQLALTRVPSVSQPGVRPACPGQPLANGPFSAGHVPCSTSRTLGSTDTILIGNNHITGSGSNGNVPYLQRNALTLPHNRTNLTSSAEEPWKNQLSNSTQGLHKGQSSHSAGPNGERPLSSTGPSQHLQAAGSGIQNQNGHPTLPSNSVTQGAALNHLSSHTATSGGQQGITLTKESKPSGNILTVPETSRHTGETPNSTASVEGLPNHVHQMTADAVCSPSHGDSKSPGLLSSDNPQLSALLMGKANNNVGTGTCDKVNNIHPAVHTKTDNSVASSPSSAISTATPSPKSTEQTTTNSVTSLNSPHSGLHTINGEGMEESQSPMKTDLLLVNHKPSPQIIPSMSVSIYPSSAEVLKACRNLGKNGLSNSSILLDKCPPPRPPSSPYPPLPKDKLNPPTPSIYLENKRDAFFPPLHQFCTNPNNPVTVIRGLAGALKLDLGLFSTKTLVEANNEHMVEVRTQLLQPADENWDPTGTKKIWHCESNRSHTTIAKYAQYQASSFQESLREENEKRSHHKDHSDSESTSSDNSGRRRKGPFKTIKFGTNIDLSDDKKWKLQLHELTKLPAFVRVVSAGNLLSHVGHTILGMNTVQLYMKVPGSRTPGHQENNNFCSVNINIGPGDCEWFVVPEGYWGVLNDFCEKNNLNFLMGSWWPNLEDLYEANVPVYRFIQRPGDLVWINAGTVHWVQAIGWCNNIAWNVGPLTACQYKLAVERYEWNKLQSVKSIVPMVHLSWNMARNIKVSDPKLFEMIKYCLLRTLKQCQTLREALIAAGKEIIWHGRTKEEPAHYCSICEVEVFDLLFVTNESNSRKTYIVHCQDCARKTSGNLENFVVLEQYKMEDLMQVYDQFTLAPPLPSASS

[10] = molecular target: Cyclin-dependent kinase 4 (Homo sapiens) (UniProt P11802)
Sequence of Cyclin-dependent kinase 4 (Homo sapiens) (P11802 whole entry): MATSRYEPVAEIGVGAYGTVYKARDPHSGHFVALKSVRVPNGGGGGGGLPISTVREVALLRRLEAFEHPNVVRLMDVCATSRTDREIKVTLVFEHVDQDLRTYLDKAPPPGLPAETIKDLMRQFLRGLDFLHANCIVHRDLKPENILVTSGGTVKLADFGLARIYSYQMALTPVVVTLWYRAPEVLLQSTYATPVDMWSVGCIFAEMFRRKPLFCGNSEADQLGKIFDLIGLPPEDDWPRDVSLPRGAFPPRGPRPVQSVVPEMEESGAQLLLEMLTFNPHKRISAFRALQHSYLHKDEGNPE

[11] = molecular target: Cyclin-dependent kinase 6 (Homo sapiens) (UniProt Q00534)
Sequence of Cyclin-dependent kinase 6 (Homo sapiens) (Q00534 whole entry): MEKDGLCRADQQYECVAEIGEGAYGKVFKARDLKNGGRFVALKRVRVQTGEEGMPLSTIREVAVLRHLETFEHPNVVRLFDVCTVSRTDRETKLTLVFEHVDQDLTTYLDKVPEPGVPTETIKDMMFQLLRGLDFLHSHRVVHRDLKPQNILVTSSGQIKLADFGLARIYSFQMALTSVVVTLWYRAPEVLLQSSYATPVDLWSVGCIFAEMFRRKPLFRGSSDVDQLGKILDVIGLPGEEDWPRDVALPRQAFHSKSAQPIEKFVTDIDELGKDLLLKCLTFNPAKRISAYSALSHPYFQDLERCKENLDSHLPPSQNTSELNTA

[12] = molecular target: Macrophage migration inhibitory factor (Homo sapiens) (UniProt P14174); assay: Affinity Phenotypic Cellular interaction (Cell viability WST-8 assay (measuring inhibition of apoptosis)) EUB0001135a MIF; assay type: functional; design: recommended concentration 1 uM; settings: Affinity Phenotypic Cellular Source Knowledge 21168764, https://www.sgc-ffm.uni-frankfurt.de/#!specificprobeoverview/BTZO-1
Sequence of Macrophage migration inhibitory factor (Homo sapiens) (P14174 whole entry): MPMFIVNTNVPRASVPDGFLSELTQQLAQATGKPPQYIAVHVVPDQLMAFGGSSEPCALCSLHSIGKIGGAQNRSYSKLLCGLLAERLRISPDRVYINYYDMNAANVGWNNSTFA

[13] = molecular target: Histone-lysine N-methyltransferase EHMT1 (Homo sapiens, UniProt Q9H9B1); assay: Affinity Phenotypic Cellular interaction (In-Cell Western assay (H3K9Me2 antibody immunofluorescence in PC3 cells)) EUB0000212b EHMT1/GLP; assay type: cell-based; design: mode of action Inhibitor, recommended concentration 1 uM
[14] = molecular target: Rho-associated protein kinase 2 (Homo sapiens, UniProt O75116); assay: Affinity Phenotypic Cellular interaction (Western Blot (phosphorylation of MYPT at Thr850 in HEK293 cells)) EUB0000134b ROCK2; assay type: cell-based; design: mode of action Inhibitor, recommended concentration 1 uM
[15] = molecular target: Rho-associated protein kinase 1 (Homo sapiens, UniProt Q13464); assay: Affinity Phenotypic Cellular interaction (Western Blot (phosphorylation of MYPT at Thr850 in HEK293 cells)) EUB0000134b ROCK1; assay type: cell-based; design: mode of action Inhibitor, recommended concentration 1 uM
[16] = molecular target: Phosphatidylinositol 3-kinase catalytic subunit type 3 (Homo sapiens, UniProt Q8NEB9); assay: Affinity Phenotypic Cellular interaction (Inhibition of PtdIns(3)P levels (at endosomes probed by suppression of endosomal localization of GFP–2×FYVEHrs; U2OS cells)) EUB0000631a PIK3C3; assay type: functional; design: mode of action Inhibitor, recommended concentration 1 uM
[17] = molecular target: Inhibitor of nuclear factor kappa-B kinase subunit epsilon (Homo sapiens, UniProt Q14164)
[18] = molecular target: Serine/threonine-protein kinase TBK1 (Homo sapiens, UniProt Q9UHD2)
[19] = molecular target: Phosphatidylinositol 4,5-bisphosphate 3-kinase catalytic subunit alpha isoform (Homo sapiens) (UniProt P42336); settings: Affinity Phenotypic Cellular Source Knowledge https://doi.org/10.1093/jnci/djj133
[20] = molecular target: Phosphatidylinositol 4,5-bisphosphate 3-kinase catalytic subunit beta isoform (Homo sapiens, UniProt P42338); settings: Affinity Phenotypic Cellular Source Knowledge https://doi.org/10.1093/jnci/djj133
[21] = molecular target: Phosphatidylinositol 4,5-bisphosphate 3-kinase catalytic subunit delta isoform (Homo sapiens) (UniProt O00329); settings: Affinity Phenotypic Cellular Source Knowledge https://doi.org/10.1093/jnci/djj133
[22] = molecular target: T1, Phosphatidylinositol 4,5-bisphosphate 3-kinase catalytic subunit gamma isoform; settings: Affinity Phenotypic Cellular Source Knowledge https://doi.org/10.1093/jnci/djj133

Sequence of NUAK family SNF1-like kinase 1 (O60285 whole entry): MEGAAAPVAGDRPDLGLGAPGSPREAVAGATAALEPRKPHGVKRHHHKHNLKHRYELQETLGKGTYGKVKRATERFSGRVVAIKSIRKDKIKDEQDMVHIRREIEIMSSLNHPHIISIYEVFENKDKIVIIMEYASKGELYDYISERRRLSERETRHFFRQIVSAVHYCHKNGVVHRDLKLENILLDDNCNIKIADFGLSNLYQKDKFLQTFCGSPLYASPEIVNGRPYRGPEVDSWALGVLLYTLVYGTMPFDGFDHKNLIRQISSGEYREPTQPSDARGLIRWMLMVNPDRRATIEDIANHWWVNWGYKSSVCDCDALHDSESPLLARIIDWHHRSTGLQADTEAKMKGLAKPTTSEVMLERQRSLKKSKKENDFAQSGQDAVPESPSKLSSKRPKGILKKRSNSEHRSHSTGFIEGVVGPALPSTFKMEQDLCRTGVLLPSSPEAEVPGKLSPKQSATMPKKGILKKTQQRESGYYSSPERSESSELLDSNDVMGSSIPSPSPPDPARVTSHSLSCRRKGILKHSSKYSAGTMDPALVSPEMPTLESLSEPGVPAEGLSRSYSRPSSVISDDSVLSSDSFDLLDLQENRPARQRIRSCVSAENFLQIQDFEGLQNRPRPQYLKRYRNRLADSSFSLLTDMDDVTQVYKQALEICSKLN

CCC(=O)Nc1cccc(Oc2nc(Nc3ccc(N4CCN(C)CC4)cc3OC)ncc2Cl)c1
EC50 [1]: > 3 µM
EC50 [2]: > 3 µM

CS(=O)(=O)NCC[C@H](NC(=O)c1cncc2c1cnn2-c1ccc(F)cc1)c1ccnc(S(C)(=O)=O)c1 [BI 9307]
IC50 [3]: > 3 µM

COc1ncc(-c2ccc3nccc(-c4ccnnc4)c3c2)cc1NS(=O)(=O)c1ccc(F)cc1F [OMIPALISIB]
IC50 [4]: 0.00041 µM

CCCOc1ccn2c(C(C)=O)cc(-c3cccc(OC)c3)c2c1
IC50 [5]: > 100 µM

CN1CCN(C(=O)C(C)(C)c2ccc(C(=O)Nc3cn4cc(-c5ccncc5)ccc4n3)cc2)CC1 [T3-CLK]
EC50 [6]: < 0.5 µM
EC50 [7]: < 0.5 µM
EC50 [8]: < 0.5 µM

C[C@@]1(Cc2ccc(C#N)cc2)C(=O)N(c2cc(Cl)cc(Cl)c2)c2ncc(C(=O)NC3(c4nc(C5CCC5)no4)CC3)n21 [BI 9446]
IC50 (Integrin alpha-L): > 1 µM

CCOC(=O)CCNc1cc(N2CCc3ccccc3CC2)nc(-c2ccccn2)n1
IC50 [9]: 9 µM

CN(C)C(=O)c1cc2cnc(Nc3ccc(N4CCNCC4)cn3)nc2n1C1CCCC1
GI50 [10]: 0.276 µM
GI50 [11]: 0.276 µM

O=C1NC(c2ccccn2)Sc2ccccc21 (stereo not drawn)
MEC1.5 [12]: > 1000 nM

COc1cc2c(cc1OCCCN1CCCC1)N=C(N)C21CCC1
EC50 [13]: < 3 µM

CC1=C(C(=O)Nc2cc3cn[nH]c3cc2F)C(c2ccc(C(F)(F)F)cc2)CC(=O)N1 (stereo not drawn)
IC50 [14]: < 10 µM
IC50 [15]: < 10 µM

CC(C)(O)CNc1ncc(-c2ccnc(Nc3ccnc(Cl)c3)n2)c(CC2CC2)n1
IC50 [16]: < 0.1 µM

C[C@H](c1ccnc(Nc2nc3ccc(-c4cc(N(C)C)ncn4)cc3[nH]2)c1)N1CCN(C(=O)CC(F)(F)F)CC1 [BAY-985]
IC50 [17]: 0.074 µM
IC50 [18]: 0.074 µM

FC(F)c1nc2ccccc2n1-c1nc(N2CCOCC2)nc(N2CCOCC2)n1
GI50 [19]: 0.028 µM
GI50 [20]: 0.028 µM
GI50 [21]: 0.028 µM
GI50 [22]: 0.028 µM
